In patent US11053219B2, “Substituted pyridines as TYK2 inhibitors” (FronThera U.S. Pharmaceuticals LLC, priority 2018, dated 2021):
One block for each molecule: values may come before it.

Legend:
TYK2 (JH2 domain) = TYK2 (JH2 domain) (Homo sapiens (Human), UniProt P29597); assay: TYK2 JH2 domain binding assay (DiscoverX KINOMEscan); conditions: 11-point 3-fold dilution, duplicate
[1] = test system: INFα induced pSTAT5 in human PBMC; assay: INFα induced pSTAT5 in human PBMC; assay type: cell-based; conditions: human PBMC, INFα 5000 units/ml; read-out: p-STAT5 IC50
JAK1 (JH2 domain) = JAK1 (JH2 domain) (Homo sapiens (Human), UniProt P23458); assay: JAK1 JH2 domain binding assay (KINOMEscan); conditions: KINOMEscan; read-out: JAK1 (JH2 domain) binding Kd
JAK2 (JH1 domain) = JAK2 (JH1 domain) (Homo sapiens (Human), UniProt O60674); assay: JAK2 JH1 domain binding assay (KINOMEscan)
[2] = test system: GM-CSF-induced pSTAT5 in human PBMC; assay: GM-CSF-induced pSTAT5 in human PBMC; assay type: cell-based; conditions: GM-CSF 10 ng/ml
Experimental: (§1) Fresh Human PBMCs were resuspended in RPMI 1640 medium with 10% FBS. Cells were seeded in a round bottom 96-well plate at the concentration of 200,000 cells/well. A 10-point dilution series of test compound (top dose 10 uM, 1:5 dilution) was added to the well using the liquid dispenser (Tecan D300e) and incubated for 1 hour at 37 C. Then human IL-12 recombinant protein (R&D Systems) was added to the well at the final concentration of 10 ng/ml and incubated for 15 minutes at 37 C. Cell lysates were prepared and analyzed by Phospho STAT4 (Tyr693) Kit (Meso Scale Discovery) following manufacturer's protocol.
(§2) For calculation of the inhibition rate, the relative pSTAT4 signal of each well=pSTAT4 signal of each well−the average pSTAT4 signal of baseline. The inhibition %=(the average pSTAT4 signal of IL-12 treatment wells−the relative of pSTAT4 signal in each compound containing well)/the average pSTAT4 signal of IL-12 treatment wells*100%
(§3) The curve was plotted as the inhibition % (y-axis) vs. compounds concentration (x-axis) and was fitted with log(inhibitor) vs. normalized response—Variable slope by GraphPad Prism7.0. Control is BMS-986165:
(§4) Similar to the method for IL-12 induced pSTAT4 in human PBMC described above, these assays were performed to check if test compounds have cross-activity to JAK1. JAK2 and JAK3 pathways in human PBMC. The procedure is as described with change of stimuli to 10 ng/ml of GM-CSF or 20 ng/ml of IL-2.

[3] = test system: IL-2-induced pSTAT5 in human PBMC; assay: IL-2-induced pSTAT5 in human PBMC; assay type: cell-based; conditions: IL-2 20 ng/ml
Experimental: as §1, §2, §3, §4

[4] = Pharmacokinetic study in C57BL/6 mice; assay type: in vivo; design: AUC: unit not given here; conditions: for Tmax / bioavailability / half-life / Cmax / clearance / Vd: male, mouse, plasma; for Vd: read-out: Vdss
Experimental: (§5) The pharmacokinetics of test compounds were evaluated in male C57BL/6 mice, Sprague Dawley rats, Beagle dogs, and cynomolgus monkeys when administered via oral gavage and IV injection. The animals were fasted overnight before administration. Plasma samples were collected predose and at 0.5, 1, 3, 6, 9, 12, and 24 hours postdose. The samples were analyzed by LC/MS/MS and the concentration of test compound at each timepoint was determined by linear regression. Pharmacokinetic parameters were calculated from the plasma concentrations using Pheonix WinNonlin.

[5] = Pharmacokinetic study in Sprague Dawley rats; assay type: in vivo; conditions: rat, plasma; for Vd: read-out: Vdss
Experimental: as §5

[6] = Pharmacokinetic study in Beagle dogs; assay type: in vivo; conditions: dog, plasma; for Vd: read-out: Vdss
Experimental: as §5

[7] = Pharmacokinetic study in cynomolgus monkeys; assay type: in vivo; conditions: cynomolgus monkey, plasma; for Vd: read-out: Vdss
Experimental: as §5

[8] = Oral (10 mg/kg), read-out: C0 or Cmax (Cmax)
[9] = iv, I.V. (2 mg/kg), read-out: C0 or Cmax (C0)
[10] = Oral (5 mg/kg), read-out: C0 or Cmax (Cmax)
[11] = iv, I.V. (1 mg/kg), read-out: C0 or Cmax (C0)
[12] = Oral (2 mg/kg), read-out: C0 or Cmax (Cmax)
[13] = Oral (2 mg/kg), NA: no detectable
[14] = Oral (2 mg/kg), NA: no detectable, read-out: C0 or Cmax (Cmax)
[15] = intravenous, printed on the Oral (2 mg/kg) line (probably belongs to I.V. 1 mg/kg)

Chain of TYK2 (JH2 domain) (P29597 589-875): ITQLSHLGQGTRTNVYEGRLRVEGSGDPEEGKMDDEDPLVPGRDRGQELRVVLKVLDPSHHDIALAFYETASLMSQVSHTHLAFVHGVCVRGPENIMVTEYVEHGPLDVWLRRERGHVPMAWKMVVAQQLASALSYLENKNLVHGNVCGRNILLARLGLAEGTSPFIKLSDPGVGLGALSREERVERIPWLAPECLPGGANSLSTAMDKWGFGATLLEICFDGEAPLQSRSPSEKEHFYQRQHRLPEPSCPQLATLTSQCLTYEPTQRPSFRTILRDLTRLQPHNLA
Chain of JAK2 (JH1 domain) (O60674 849-1124): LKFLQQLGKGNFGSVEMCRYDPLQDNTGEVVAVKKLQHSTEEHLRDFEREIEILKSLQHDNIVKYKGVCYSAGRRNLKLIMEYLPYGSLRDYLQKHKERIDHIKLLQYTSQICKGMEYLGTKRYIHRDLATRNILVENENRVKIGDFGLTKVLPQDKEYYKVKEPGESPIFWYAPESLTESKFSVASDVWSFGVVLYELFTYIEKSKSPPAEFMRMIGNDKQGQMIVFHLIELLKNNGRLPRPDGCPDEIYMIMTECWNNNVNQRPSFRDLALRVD
Chain of JAK1 (JH2 domain) (P23458 583-855): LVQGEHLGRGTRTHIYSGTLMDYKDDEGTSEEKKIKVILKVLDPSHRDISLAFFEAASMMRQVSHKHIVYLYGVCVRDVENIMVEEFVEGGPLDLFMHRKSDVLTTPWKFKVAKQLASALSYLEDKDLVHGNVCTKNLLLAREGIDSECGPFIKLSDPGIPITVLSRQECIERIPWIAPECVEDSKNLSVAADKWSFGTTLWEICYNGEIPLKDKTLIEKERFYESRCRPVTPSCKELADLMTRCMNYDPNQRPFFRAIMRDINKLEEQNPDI

SMILES: [2H]C([2H])([2H])CC(=O)c1cnc(NC(=O)C2CC2)cc1Nc1nccc(-c2ncn(C([2H])([2H])[2H])n2)c1OC [Example 200]
- Kd (TYK2 (JH2 domain)): ≤ 0.001 µM
- IC50 [1]: < 0.1 µM
- Kd (JAK1 (JH2 domain)): < 0.1 µM
- Kd (JAK2 (JH1 domain)): 1 to 10 µM
- IC50 [2]: > 10 µM
- IC50 [3]: 1 to 10 µM
- AUC ([4]; I.V. (2 mg/kg)): 4475
- AUC ([4]; Oral (10 mg/kg)): 19295
- Tmax ([4]; Oral (10 mg/kg)): 0.25 h
- bioavailability ([4]; Oral (10 mg/kg)): 85.1%
- half-life ([4]; Oral (10 mg/kg)): 2.01 h
- Cmax [4, 8]: 4.19 µg/mL
- clearance ([4]; iv, I.V. (2 mg/kg)): 0.441 L/h/kg
- half-life ([4]; iv, I.V. (2 mg/kg)): 4.62 h
- Cmax [4, 9]: 2.39 µg/mL
- Vd ([4]; iv, I.V. (2 mg/kg)): 1.5 L/kg
- AUC ([5]; Oral (5 mg/kg)): 3.66 ± 0.684 µg·h/mL
- Tmax ([5]; Oral (5 mg/kg)): 1 h
- bioavailability ([5]; Oral (5 mg/kg)): 42.7 ± 8%
- half-life ([5]; Oral (5 mg/kg)): 4.22 ± 3.6 h
- Cmax [5, 10]: 0.948 ± 0.043 µg/mL
- AUC ([5]; iv, I.V. (1 mg/kg)): 1.71 ± 0.019 µg·h/mL
- clearance ([5]; iv, I.V. (1 mg/kg)): 0.5652 ± 0.00132 L/h/kg
- half-life ([5]; iv, I.V. (1 mg/kg)): 1.58 ± 0.21 h
- Cmax [5, 11]: 1.03 ± 0.047 µg/mL
- Vd ([5]; iv, I.V. (1 mg/kg)): 1.24 ± 0.065 L/kg
- AUC ([6]; Oral (2 mg/kg)): 2.62 ± 0.258 µg·h/mL
- Tmax ([6]; Oral (2 mg/kg)): 1.33 h
- bioavailability ([6]; Oral (2 mg/kg)): 82.9 ± 8.2%
- half-life ([6]; Oral (2 mg/kg)): 8.51 ± 1.6 h
- Cmax [6, 12]: 0.247 ± 0.017 µg/mL
- AUC ([6]; iv, I.V. (0.5 mg/kg)): 0.79 ± 0.196 µg·h/mL
- half-life ([6]; iv, I.V. (0.5 mg/kg)): 11.5 ± 1.6 h
- Cmax ([6]; iv, I.V. (0.5 mg/kg), read-out: C0 or Cmax (C0)): 0.0297 ± 0.014 µg/mL
- Vd ([6]; iv, I.V. (0.5 mg/kg)): 8.37 ± 1.39 L/kg
- AUC [7, 13]: 4.06 ± 0.251 µg·h/mL
- Tmax [7, 13]: 2 h
- bioavailability [7, 13]: 27.7 ± 1.7%
- half-life [7, 13]: 8.6 ± 0.73 h
- Cmax [7, 14]: 0.384 ± 0.022 µg/mL
- AUC ([7]; iv, I.V. (1 mg/kg)): 7.32 ± 0.202 µg·h/mL
- clearance ([7]; iv, I.V. (1 mg/kg)): 0.112 ± 0.0126 L/h/kg
- half-life ([7]; iv, I.V. (1 mg/kg)): 9.35 ± 1.57 h
- Cmax [7, 11]: 0.677 ± 0.081 µg/mL
- Vd ([7]; iv, I.V. (1 mg/kg)): 1.45 ± 0.18 L/kg

- Kd (TYK2 (JH2 domain)): ≤ 0.001 µM
- Kd (JAK1 (JH2 domain)): < 0.1 µM
- Kd (JAK2 (JH1 domain)): 0.1 to 1 µM
- AUC ([5]; Oral (5 mg/kg)): 0.499 ± 0.502 µg·h/mL
- Tmax ([5]; Oral (5 mg/kg)): 0.42 ± 0.14 h
- bioavailability ([5]; Oral (5 mg/kg)): 18.7 ± 18.9%
- half-life ([5]; Oral (5 mg/kg)): 1.14 ± 0.2 h
- Cmax [5, 10]: 0.185 ± 0.138 µg/mL
- AUC ([5]; iv, I.V. (1 mg/kg)): 0.533 ± 0.225 µg·h/mL
- clearance ([5]; iv, I.V. (1 mg/kg)): 2.06 ± 0.72 L/h/kg
- half-life ([5]; iv, I.V. (1 mg/kg)): 0.759 ± 0.6 h
- Cmax [5, 11]: 1.19 ± 0.116 µg/mL
- Vd ([5]; iv, I.V. (1 mg/kg)): 1.31 ± 0.42 L/kg
- AUC ([6]; Oral (2 mg/kg)): 0.442 ± 0.081 µg·h/mL
- Tmax ([6]; Oral (2 mg/kg)): 2 h
- bioavailability ([6]; Oral (2 mg/kg)): 38.5 ± 7.1%
- half-life ([6]; Oral (2 mg/kg)): 5.05 ± 0.47 h
- Cmax [6, 12]: 0.103 ± 0.028 µg/mL
- AUC ([6]; iv, I.V. (1 mg/kg)): 0.575 ± 0.158 µg·h/mL
- clearance ([6]; iv, I.V. (1 mg/kg)): 1.76 ± 0.481 L/h/kg
- half-life ([6]; iv, I.V. (1 mg/kg)): 4.54 ± 1.26 h
- Cmax [6, 11]: 0.458 ± 0.336 µg/mL
- Vd ([6]; iv, I.V. (1 mg/kg)): 7.41 ± 2.64 L/kg
- AUC [7, 13]: 0.0679 ± 0.021 µg·h/mL
- Tmax [7, 13]: 2.33 ± 1.5 h
- bioavailability [7, 13]: 4.67 ± 1.5%
- half-life [7, 13]: 3.08 ± 0.66 h
- Cmax [7, 14]: 0.0139 ± 0.002 µg/mL
- clearance [7, 15]: 1.39 ± 0.258 L/h/kg
- Vd [7, 15]: 1.47 ± 0.1 L/kg
- AUC ([7]; iv, I.V. (1 mg/kg)): 0.726 ± 0.134 µg·h/mL
- half-life ([7]; iv, I.V. (1 mg/kg)): 1.81 ± 0.76 h
- Cmax [7, 11]: 0.849 ± 0.05 µg/mL
SMILES: [2H]C([2H])([2H])CC(=O)c1cnc(Nc2ccc(C(C)(C)O)c(F)n2)cc1Nc1nccc(-c2ncn(C([2H])([2H])[2H])n2)c1OC [Example 201]
- IC50 [1]: < 0.1 µM
- IC50 [2]: 0.1 to 1 µM
- IC50 [3]: 0.1 to 1 µM

- Kd (TYK2 (JH2 domain)): ≤ 0.001 µM
- Kd (JAK1 (JH2 domain)): < 0.1 µM
- Kd (JAK2 (JH1 domain)): 0.1 to 1 µM
- AUC ([4]; I.V. (2 mg/kg)): 1911
- AUC ([4]; Oral (10 mg/kg)): 6395
- Tmax ([4]; Oral (10 mg/kg)): 0.5 h
- bioavailability ([4]; Oral (10 mg/kg)): 66.6%
- half-life ([4]; Oral (10 mg/kg)): 3.27 h
- Cmax [4, 8]: 1.9 µg/mL
- clearance ([4]; iv, I.V. (2 mg/kg)): 1.04 L/h/kg
- half-life ([4]; iv, I.V. (2 mg/kg)): 0.97 h
- Cmax [4, 9]: 3.34 µg/mL
- Vd ([4]; iv, I.V. (2 mg/kg)): 0.785 L/kg
- AUC ([5]; Oral (5 mg/kg)): 0.21 ± 0.06 µg·h/mL
- Tmax ([5]; Oral (5 mg/kg)): 4 ± 2 h
- bioavailability ([5]; Oral (5 mg/kg)): 8.35 ± 2.4%
- half-life ([5]; Oral (5 mg/kg)): 1.29 ± 0.24 h
- Cmax [5, 10]: 0.0501 ± 0.011 µg/mL
- AUC ([5]; iv, I.V. (1 mg/kg)): 0.504 ± 0.058 µg·h/mL
- clearance ([5]; iv, I.V. (1 mg/kg)): 1.99 ± 0.24 L/h/kg
- half-life ([5]; iv, I.V. (1 mg/kg)): 0.323 ± 0.035 h
- Cmax [5, 11]: 1.98 ± 0.101 µg/mL
- Vd ([5]; iv, I.V. (1 mg/kg)): 0.653 ± 0.03 L/kg
- AUC ([6]; Oral (2 mg/kg)): 0.555 ± 0.154 µg·h/mL
- Tmax ([6]; Oral (2 mg/kg)): 1 h
- bioavailability ([6]; Oral (2 mg/kg)): 55 ± 15%
- half-life ([6]; Oral (2 mg/kg)): 1.59 ± 0.15 h
- Cmax [6, 12]: 0.156 ± 0.053 µg/mL
- AUC ([6]; iv, I.V. (1 mg/kg)): 0.504 ± 0.049 µg·h/mL
- clearance ([6]; iv, I.V. (1 mg/kg)): 1.96 ± 0.186 L/h/kg
- half-life ([6]; iv, I.V. (1 mg/kg)): 1.74 ± 0.28 h
- Cmax [6, 11]: 0.469 ± 0.255 µg/mL
- Vd ([6]; iv, I.V. (1 mg/kg)): 4.21 ± 0.19 L/kg
SMILES: [2H]C([2H])([2H])CC(=O)c1cnc(Nc2ccc(C(C)(C)O)c(F)n2)cc1Nc1cccc(-c2ncn(C([2H])([2H])[2H])n2)c1OC [Example 202]
- IC50 [1]: < 0.1 µM
- IC50 [2]: 0.1 to 1 µM
- IC50 [3]: 0.1 to 1 µM
